Data published in ChEMBL document CHEMBL4304823, “Photo-induced synthesis of Axinastatin 3 analogs, the secondary structures and their in vitro antitumor activities” (Bioorg Med Chem Lett, 2019).
≈ marks a conversion by molar mass, not a printed value. Each block holds one compound with its values, some of them ahead of it. Calls of active or inactive are those of the source. No cut-off for these calls is given here.

Legend:
[1] = system: HepG2; test: Antitumour activity against human HepG2 cells assessed as reduction in cell viability incubated for 48 hrs by MTT assay; assay type: functional, cell-based; details: HepG2, 48 h
[2] = system: HeLa; test: Antitumour activity against human HeLa cells assessed as reduction in cell viability by MTT assay; assay type: functional, cell-based
[3] = system: L929; test: Cytotoxicity against mouse L929 cells assessed as reduction in cell viability measured after 48 hrs; assay type: cell-based; details: for IC50: Mus musculus, L929, 48 h; for Activity: mouse, l929, 48 h
[4] = system: HepG2; test: Induction of cell death in human HepG2 cells at 40 uM measured after 48 hrs by fluorescence inversion microscopy analysis; assay type: functional, cell-based
[5] = system: HepG2; test: Induction of cell morphological changes in human HepG2 cells assessed as decrease in cell number at 40 uM measured after 0 to 48 hrs by fluorescence inversion microscopy analysis; assay type: functional, cell-based
[6] = system: HepG2; test: Induction of cell morphological changes in human HepG2 cells assessed as change in normal spindle cell shape to rounder cells with weak adhesion ability at 40 uM measured after 0 to 48 hrs by fluorescence inversion microscopy analysis; assay type: functional, cell-based

SMILES: CC[C@H](C)[C@@H]1NC(=O)CN2C(=O)c3ccccc3[C@]2(O)CN(Cc2ccccc2)C(=O)[C@@H]2CCCN2C(=O)[C@H](C(C)C)NC(=O)[C@@H]2CCCN2C(=O)[C@H](CC(C)C)NC1=O
- IC50 [1]: 72.6 µg/mL (≈ 87.6 µM)
- IC50 [2]: 89 µg/mL (≈ 107 µM)
- IC50 [3]: 86.2 µg/mL (≈ 104 µM)
- Activity [3]: Dose-dependent effect

SMILES: CC[C@H](C)[C@@H]1NC(=O)CN2C(=O)c3ccccc3[C@@]2(O)CN(Cc2ccccc2)C(=O)[C@H]2CCCN2C(=O)[C@H](C(C)C)NC(=O)[C@H]2CCCN2C(=O)[C@H](CC(C)C)NC1=O
- Activity [4]: Active
- Activity [5]: Active
- Activity [6]: Active

SMILES: CCNC(=O)CC[C@@H]1NC(=O)CN2C(=O)c3ccccc3[C@@]2(O)CN(Cc2ccccc2)C(=O)[C@H]2CCCN2C(=O)[C@H](C(C)C)NC(=O)[C@H]2CCCN2C(=O)[C@H](CC(C)C)NC(=O)[C@H]([C@@H](C)CC)NC1=O
- IC50 [1]: 64.5 µg/mL (≈ 65.6 µM)
- IC50 [2]: 280 µg/mL (≈ 285 µM)
- IC50 [3]: 61.1 µg/mL (≈ 62 µM)
- Activity [3]: Dose-dependent effect

The next lines start with results.

- IC50 [1]: 102 µg/mL (≈ 119 µM)
- IC50 [2]: > 400 µg/mL
SMILES: CC(=O)O[C@H]1C(=O)[C@@]2(C)[C@H]([C@H](OC(=O)c3ccccc3)[C@]3(O)C[C@H](OC(=O)[C@H](O)[C@@H](NC(=O)c4ccccc4)c4ccccc4)C(C)=C1C3(C)C)[C@]1(OC(C)=O)CO[C@@H]1C[C@@H]2O [PACLITAXEL]
- IC50 [3]: 33 µg/mL (≈ 38.6 µM)

- IC50 [1]: 38.4 µg/mL (≈ 46.4 µM)
- IC50 [2]: 41.2 µg/mL (≈ 49.7 µM)
SMILES: CC[C@H](C)[C@@H]1NC(=O)CN2C(=O)c3ccccc3[C@@]2(O)CN(Cc2ccccc2)C(=O)[C@@H]2CCCN2C(=O)[C@H](C(C)C)NC(=O)[C@@H]2CCCN2C(=O)[C@H](CC(C)C)NC1=O
- IC50 [3]: 50.5 µg/mL (≈ 61 µM)
- Activity [3]: Dose-dependent effect
